# Like-named read-outs stand apart in the source and are kept apart here.
# Tests used:
# [1] = Variation in body temperature (duration of action); format: in vivo, mice
# Method: (§1) The test is carried out on male mice (CD1 Charles Rivers) weighing 25 to 30 g, which have gone without food for 6 hours.
# The body temperature is noted using a thermocouple placed about 1.5 cm inside the rectum, and connected to an electric temperature recorder. […]
# The duration of action of the products is determined using doses capable of reducing the temperature by 1° to 1.5° C.
# [2] = tested on: central cholinergic system; conditions: cited from earlier work
# [3] = tested on: patients who have a memory deficiency; conditions: intravenous route; cited from earlier work
# [4] = Hypothermic activity in mice; format: in vivo; conditions: Mus musculus, male mice, read-out: Effective dose (-1° C.)
# Method: as §1
# The body temperature is noted using a thermocouple placed about 1.5 cm inside the rectum, and connected to an electric temperature recorder.
# The products are administered by oral or subcutaneous route and the temperatures are noted at instant 0 and at 30 minutes, 1 hour, 2 hours and 21/2 hours after treatment.
# The degree of hypothermia is evaluated as the difference between the treated animals and the control animals, and the dose necessary for reducing the body temperature by 1° C. is determined.
# [5] = tested on: isolated ileum of guinea pigs; test: Test on the isolated ileum of guinea pigs (agonistic activity); conditions: Cavia porcellus; isolated guinea pig ileum, contraction, Tyrode's solution, 37° C.; read-out: pD2 (negative logarithm of the dose which produces 50% of the maximum effect) (converted)
# Method: Fragments of the ileum of guinea pigs killed by decapitation are removed. The isolated ileum is placed in 10 cm^3 of Tyrode's solution at 37° C. and aerated by a mixture of oxygen (95%) and carbon dioxide gas (5%). The contractions due to the products are recorded with a detector linked to a polygraph. The products under test are added at concentrations between 1.10^-4 M and 1.10^-8 M/1.
# The products showing a contracting effect are tested vis a vis atropine and hexamethonium in order to establish whether the activity is of "muscarine" or "nicotine" type.
# The possible antagonistic activity of the products is tested vis a vis acetylcholine.
# The agonistic activity is expressed in pD2 (negative logarithm of the dose which produces 50% of the maximum effect.)
# [6] = Diarrheic activity in mice, oral route; conditions: mouse, in vivo, male mice, read-out: DE50 (dose which causes diarrhea in 50% of the animals)
# Method: The test is carried out on male mice (CD1 Charles Rivers) weighing 25 to 30 g, which have gone without food for 6 hours. The product, dissolved at 5% in methocel, is administered by oral route, using a probang.
# The control animals receive only the excipient.
# After treatment, the animals are put separately into cages, the bottoms of which are covered with blotting paper, and are put under observation for 30, 60, 120 and 180 minutes.
# The absorbent sheets of paper are changed after each observation.
# The consistency of the faeces is evaluated according to the Randall and Baruth method (Arch. Int. Pharmacodyn. 220, 94, 1976), according to the scale of the following values:
# 1: slightly moist faeces with or without halo of humidity,
# 2: slightly moist faeces with presence of well-defined circle of humidity,
# 3: moist faeces with presence of a large circle of humidity,
# 4: faeces without consistency with presence of a very large circle of humidity.
# For each product, the dose which causes diarrhea in 50% of the animals is noted according to the method of Miller and Tainter (Proc. Soc. Exp. Biol. Med., 57, 261, 1944).
# in vivo = conditions: mouse, male mice, oral route, mortality noted for 7 days
# Method: The test is carried out on male mice (CD1 Charles Rivers) of 22 to 24 g, which have gone without food for 16 hours.
# [7] = 2 mg/kg, sc, 30 min, **p < 0.01
# [8] = 2 mg/kg, sc, 60 min, **p < 0.01
smiles,measurement,setting,value
"COC(=O)C1=CCCN(C)C1 [Arecoline, HBr, reference compound]",Variation in body temperature,"[1]; 3.5 mg/kg, sc, 0 min",-0.1 °C
same,Variation in body temperature,"[1]; 3.5 mg/kg, sc, 30 min, **p < 0.01",-1.5 °C
same,Variation in body temperature,"[1]; 3.5 mg/kg, sc, 60 min",-0.1 °C
same,Variation in body temperature,"[1]; 3.5 mg/kg, sc, 120 min",+0.2 °C
same,Variation in body temperature,"[1]; 3.5 mg/kg, sc, 180 min",+0.2 °C
"COC(=O)C1=CCCN(C)C1 [Arecoline, reference compound]",period of action,[2]; in vivo,short-lasting period of action
same,activity by oral route,[2]; oral route,very weak activity by oral route
same,effect on patients who have a memory deficiency,[3],positive effect
same,ED (-1 C),[4]; O. R. (oral route),194 mg/kg
same,ED (-1 C),[4]; SC. R. (subcutaneous route),3 mg/kg
same,EC50,[5],0.126 µM
same,ED50,[6],35 mg/kg
"CON=CC1CCCNC1 (stereo not drawn) [Example 2, 3-piperidine carbaldehyde O-methyloxime]",Variation in body temperature,"[1]; 2 mg/kg, os, 0 min",+0.1 °C
same,Variation in body temperature,"[1]; 2 mg/kg, os, 30 min, **p < 0.01",-1.7 °C
same,Variation in body temperature,"[1]; 2 mg/kg, os, 60 min, **p < 0.01",-1.4 °C
same,Variation in body temperature,"[1]; 2 mg/kg, os, 120 min",+0.1 °C
same,Variation in body temperature,"[1]; 2 mg/kg, os, 180 min",+0.1 °C
same,Variation in body temperature,[1]; [7],-1.7 °C
same,Variation in body temperature,[1]; [8],-1.5 °C
same,Variation in body temperature,"[1]; 2 mg/kg, sc, 180 min",+0.1 °C
same,ED (-1 C),[4]; O. R. (oral route),1.2 mg/kg
same,ED (-1 C),[4]; SC. R. (subcutaneous route),1.2 mg/kg
same,EC50,[5],0.891 µM
same,LD50 at 168 h,in vivo,125 mg/kg
same,ED50,[6],3 mg/kg
"C#CCON=CC1CCCNC1 (stereo not drawn) [Example 6, 3-piperidine carbaldehyde O-(2-propynyl) oxime]",Variation in body temperature,"[1]; 12.5 mg/kg, os, 0 min",+0.1 °C
same,Variation in body temperature,"[1]; 12.5 mg/kg, os, 30 min, **p < 0.01",-1.2 °C
same,Variation in body temperature,"[1]; 12.5 mg/kg, os, 60 min, **p < 0.01",-1.4 °C
same,Variation in body temperature,"[1]; 12.5 mg/kg, os, 120 min",-0.1 °C
same,Variation in body temperature,"[1]; 12.5 mg/kg, os, 180 min",+0.1 °C
same,Variation in body temperature,"[1]; 12.5 mg/kg, sc, 0 min",-0.1 °C
same,Variation in body temperature,"[1]; 12.5 mg/kg, sc, 30 min, **p < 0.01",-1.6 °C
same,Variation in body temperature,"[1]; 12.5 mg/kg, sc, 60 min, **p < 0.01",-1.5 °C
same,Variation in body temperature,"[1]; 12.5 mg/kg, sc, 120 min",-0.2 °C
same,Variation in body temperature,"[1]; 12.5 mg/kg, sc, 180 min",+0.1 °C
same,ED (-1 C),[4]; O. R. (oral route),7 mg/kg
same,ED (-1 C),[4]; SC. R. (subcutaneous route),7 mg/kg
same,EC50,[5],4.47 µM
same,LD50 at 168 h,in vivo,100 mg/kg
same,ED50,[6],12 mg/kg
"CON=CC1CCCN(OC(=O)c2ccccc2)C1 (stereo not drawn) [Example 7, 1-benzoyloxy-3-piperidine carbaldehyde (O-methyloxime)]",Variation in body temperature,"[1]; 5 mg/kg, os, 0 min",+0.1 °C
same,Variation in body temperature,"[1]; 5 mg/kg, os, 30 min, **p < 0.01",-1.2 °C
same,Variation in body temperature,"[1]; 5 mg/kg, os, 60 min, **p < 0.01",-1.0 °C
same,Variation in body temperature,"[1]; 5 mg/kg, os, 120 min",+0.1 °C
same,Variation in body temperature,"[1]; 5 mg/kg, os, 180 min",+0.1 °C
same,Variation in body temperature,"[1]; 5 mg/kg, sc, 0 min",+0.1 °C
same,Variation in body temperature,"[1]; 5 mg/kg, sc, 30 min, **p < 0.01",-1.2 °C
same,Variation in body temperature,"[1]; 5 mg/kg, sc, 60 min, **p < 0.01",-1.1 °C
same,Variation in body temperature,"[1]; 5 mg/kg, sc, 180 min",+0.1 °C
same,ED (-1 C),[4]; O. R. (oral route),4 mg/kg
same,ED (-1 C),[4]; SC. R. (subcutaneous route),4 mg/kg
same,EC50,[5],> 100 µM
same,LD50 at 168 h,in vivo,> 500 mg/kg
same,ED50,[6],10 mg/kg
"CON=CC1CCCN(O)C1 (stereo not drawn) [Example 8, 1-hydroxy-3-piperidine carbaldehyde (O-methyloxime)]",Variation in body temperature,"[1]; 2 mg/kg, sc, 0 min",+0.1 °C
same,Variation in body temperature,[1]; [7],-1.2 °C
same,Variation in body temperature,[1]; [8],-1.0 °C
same,Variation in body temperature,"[1]; 2.5 mg/kg, os, 0 min",+0.1 °C
same,Variation in body temperature,"[1]; 2.5 mg/kg, os, 30 min, **p < 0.01",-1.2 °C
same,Variation in body temperature,"[1]; 2.5 mg/kg, os, 60 min, **p < 0.01",-1.0 °C
same,Variation in body temperature,"[1]; 2.5 mg/kg, os, 180 min",+0.2 °C
same,ED (-1 C),[4]; O. R. (oral route),2 mg/kg
same,ED (-1 C),[4]; SC. R. (subcutaneous route),1.6 mg/kg
same,EC50,[5],11.2 µM
same,LD50 at 168 h,in vivo,200 mg/kg
same,ED50,[6],4 mg/kg

# — patent US4927837A, “Derivatives of 3-piperidine carbaldehyde oxime and their use as medicaments” (Roussel Uclaf, priority 1987, dated 1990)
